From patent US6849757B2, “Antiangiogenic drug to treat cancer, arthritis and retinopathy” (Abbott Laboratories, priority 1998, dated 2005)

System: Human Microvascular Endothelial Cells (HMVEC)
Experiment: Endothelial cell migration assay (modified Boyden chamber, bFGF-stimulated)
Type: cell-based
Conditions: HMVEC migration toward bFGF, 4 hours at 37° C., percent inhibition of migration compared to a positive control; for inhibition at 0.2 µM: Homo sapiens, 200 nM test compound
Description: Endothelial Cell Migration Assay
The endothelial cell migration assay was performed essentially as described by Polverini, P. J. et al., Methods Enzymol, 198: 440-450 (1991). Briefly, Human Microvascular Endothelial Cells (HMVEC) were starved overnight in DMEM containing 0.1% bovine serum albumin (BSA). Cells were then harvested with trypsin and resuspended in DMEM with 0.1% BSA at a concentration of 1.5×10^6 cells/mL. Cells were added to the bottom of a 48-well modified Boyden chamber (Nucleopore Corporation, Cabin John, Md.). The chamber was assembled and inverted, and cells were allowed to attach for 2 hours at 37° C. to polycarbonate chemotaxis membranes (5 μm pore size) that had been soaked in 0.1% gelatin overnight and dried. The chamber was then reinverted and basic fibroblast growth factor (bFGF) and test substances were added to the wells of the upper chamber (to a total volume of 50 μL); the apparatus was then incubated for 4 hours at 37° C. Membranes were recovered, fixed and stained (DiffQuick, Fisher Scientific, Pittsburgh, Pa.) and the number of cells that had migrated to the upper chamber per 10 high power fields were counted. Background migration to DMEM+0.1% BSA was subtracted and the data reported as the number of cells migrated per 10 high power fields (400×) or when results from multiple experiments were combined, as the percent inhibition of migration compared to a positive control.

Compound | inhibition at 0.2 µM | % inhibition at 200 nM test compound
COC(=O)c1ccc(NC(=O)[C@@H](CCCCN)NC(=O)OC(C)(C)C)cc1-c1ccccc1O [Example 10, (R)-methyl 4-[[6-amino-2-[[(1,1-dimethylethoxy)carbonyl]amino]-1-oxohexyl]amino]-2-(2-hydroxyphenyl)benzoate] | 80% | –
COC(=O)c1ccc(NC(=O)[C@H](CCCCNC(=O)OCc2ccccc2)NC(C)=O)cc1-c1cccc(OCc2ccccc2)c1 [Example 12] | – | 29%
CC(=O)N[C@@H](CCCCN)C(=O)Nc1ccc(C(=O)O)c(-c2cccc(O)c2)c1 [Example 15, (S)-4-[[2-(acetylamino)-6-amino-1-oxohexyl)amino]-2-(3-hydroxphenyl)benzoic acid] | – | 64%
CC(=O)NC(CCCCN)C(=O)Nc1ccc(C(=O)N[C@@H](CC(N)=O)C(=O)O)c(-c2ccccc2)c1 (stereo partly shown) [Example 17] | – | >95%
NC(CCCCNC(=O)OCc1ccccc1)C(=O)Nc1ccc(CC(=O)N[C@@H](CC(=O)O)C(=O)O)cc1 (stereo partly drawn) [Example 20, (S)-N-[[4-[[2-amino-6-[[(phenylmethoxy)carbonyl]amino]-1-oxohexyl]amino]phenyl]acetyl]-L-aspartic Acid] | 34% | –
CC(C)(C)OC(=O)N[C@@H](CCCCN)C(=O)Nc1ccc(C(=O)O)c(-c2cccc(O)c2)c1 [Example 31, 5-(((2S)-6-amino-1-(tert-butoxycarbonyl)aminohexanoyl)amino)-3′-hydroxy(1,1′-biphenyl)-2-carboxylic Acid] | – | >95%
(S)-N-[4-[[2-(acetylamino)-6-amino-1-oxohexyl]amino]benzoyl]-L-α-asparagine [Example 18] | – | 90%
